Key:
[1] = test system: Kv1.3; conditions: ref Knaus et al. 1995; Fadool and Levitan 1998; cited from earlier work
[2] = test system: mitral cells; conditions: cited from earlier work
[3] = test system: DIO mice; assay: Intraperitoneal glucose tolerance test in obese mice; assay type: in vivo, mouse; conditions: day +13 after OB pump start, 12 h fasted, vs PBS; treatment p = 0.0146
[4] = molecular target: Kv1.3 (Rattus norvegicus, UniProt P15384); assay: Whole-cell patch-clamp inhibition of Kv1.3 in transfected HEK293 cells; assay type: cell-based; conditions: 10 nM; T0 vs T5 (225 s); two-way mixed-design ANOVA
[5] = test system: DIO mice; assay: Indirect calorimetry; assay type: in vivo, mouse; conditions: +2 to +12, light and dark cycle; light p = 0.496, dark p = 0.2581

Chain of Kv1.3 (Rattus norvegicus, UniProt P15384) (P15384 whole entry): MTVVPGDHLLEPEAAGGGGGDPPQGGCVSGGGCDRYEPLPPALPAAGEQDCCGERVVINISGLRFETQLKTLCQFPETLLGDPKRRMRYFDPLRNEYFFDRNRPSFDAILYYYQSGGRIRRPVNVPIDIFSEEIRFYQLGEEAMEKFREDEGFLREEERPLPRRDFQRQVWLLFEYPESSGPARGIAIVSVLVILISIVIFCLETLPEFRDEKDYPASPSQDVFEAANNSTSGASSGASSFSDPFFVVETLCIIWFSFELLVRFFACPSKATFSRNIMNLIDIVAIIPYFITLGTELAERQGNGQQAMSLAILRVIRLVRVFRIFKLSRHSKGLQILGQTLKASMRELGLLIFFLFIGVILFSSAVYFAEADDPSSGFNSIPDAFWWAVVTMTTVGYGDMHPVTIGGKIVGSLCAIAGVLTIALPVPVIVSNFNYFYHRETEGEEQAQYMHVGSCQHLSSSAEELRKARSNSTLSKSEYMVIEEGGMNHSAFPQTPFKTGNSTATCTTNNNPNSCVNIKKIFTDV

Substance: margatoxin (TIINVKCTSPKQCLPPCKAQFGQSAGAKCMNGKCKCYPH; UniProt P40755 1-39, looked up) [MgTx]
- koff (printed as a time) [1]: 2 h
- kon (in words) [1]: rather slow for a vestibule blocker
- effect on mitral cell spike firing ([2]; ref Mast and Fadool 2012, Thiebaud et al. 2016): increase the spike firing frequency and reduce the pause duration between AP trains, but have less effect on ISI

Substance: QDMgTx: HisMgTx conjugated to His-PIMA-ZW capped CdSe-ZnS QDs by metal-histidine self-assembly (TIINVKCTSPKQCLPPCKAQFGQSAGAKCMNGKCKCYPH; His tag; self-assembled on CdSe-ZnS quantum dots; UniProt P40755 1-39, looked up)
- glucose clearance (IPGTT) [3]: cleared glucose significantly faster than control animals
- change in Kv1.3 peak current amplitude (in words) [4]: significantly decreased Kv1.3 peak current amplitude
- energy expenditure (EE) [5]: no change in EE in either the light or dark cycle

Substance: insulin
- ability to increase mitral cell activity after diet-induced obesity ([2]; following diet-induced obesity, ref Fadool et al. 2011): significantly reduced

Reference: article PMC8097972 (Journal of neurochemistry, 2020)
